From US20180215784A1, “METHOD FOR PREPARATION OF N-ACYL PEPTIDES, POLYPEPTIDES AND PROTEINS” (NEODEL TEC LTD., priority 2015, published 2018)
Values after ≈ are worked out from the molar mass of the structure shown. Read-outs that look alike come from different tables or passages of the source.

How the values were obtained:
[1] = cited from earlier work
[2] = system: human skin fibroblast cell line CRL1121; assay: Stimulation of pro-collagen synthesis/secretion in cultured human skin fibroblasts (immunoblotting, densitometry); assay type: cell-based; conditions: for pro-collagen synthesis/secretion: serum-free medium with sodium ascorbate and 0.5% ethanol, vs control carrier, immunoblot FIG. 1
Method: The effect of N-octanoyl-Gly-Pro (also referred to herein as OGP) prepared in Example 2 on intracellular synthesis of pro-collagen, the precursor of collagen, was tested. OGP was applied from a 250 mg/ml stock solution in ethanol. The composition of the solute, estimated by thin layer chromatography, was 80% OGP, 15% nicotinamide and 5% octanoic acid.
The human skin fibroblast cell line CRL1121, obtained from ATCC (American Type Culture Collection), was used for monitoring pro-collagen synthesis. Cells were grown in high glucose-DMEM containing 10% Fetal Calf Serum and antibiotics (streptomycin and penicillin). Confluent cells were suspended and inoculated into wells in 96-well microplates at 7,500 cells/well. At confluency, the cells were placed on fresh medium plus sodium ascorbate (50 μg/ml) for 24 hrs. The cells were then washed with phosphate-buffered saline (PBS) and placed on serum-free medium containing sodium ascorbate, 0.5% ethanol and 50 μM OGP. Controls included cells placed in the same medium, without OGP. After 24 hrs incubation of the experimental and control cells, media were collected, centrifuged, and the proteins were denatured by SDS and heat, and stored at −20° C. for immunoblotting analyses. The cell layers were washed with PBS, dissolved in SDS sample buffer, centrifuged and stored at −20° C. until use.
The relative amount of pro-collagen secreted into the medium was determined by immunoblotting with an antibody directed to the C-terminal telopeptide of the α1(I) collagen chain, followed by enhanced chemiluminescence detection and densitometry (Shalitin N, Schlesinger H, Levy, M J, Kessler E, Kessler-Icekson G. Expression of procollagen C-proteinase enhancer in cultured rat heart fibroblasts: Evidence for co-regulation with type I collagen, J. Cell. Biochem. 90:397-407, 2003). Protein concentrations in the cell lysates were determined using the Lowry method and served for standardization. The relative Optical Density of the band corresponding to the (I) chain of pro-collagen was divided by the amount of protein and was expressed as D/P (i.e. band intensity per 1 μg protein). […] FIG. 2 presents the relative amounts of the produced and secreted pro-collagen in the OGP-treated culture compared to the control.

Compound | solubility ([1]; ethanol) [g/1.5 ml] | solubility ([1]; water) [g/mL] | pro-collagen synthesis/secretion ([2]; 50 μM OGP, 24 hrs) | pro-collagen synthesis/secretion ([2]; 50 μM OGP, 24 hrs, listed as Oct-GP) | increase of pro-collagen synthesis and secretion (factor vs control) ([2]; 50 μM OGP, 24 hrs, densitometry of control lanes 3 and 4, standardized to protein contents) | relative amounts of pro-collagen produced and secreted into the medium (D/P ratio) ([2]; Oct-GP-treated culture vs control, densitometry standardized by protein, FIG. 2)
NC(=O)c1cccnc1 [nicotinamide] | 1 | 1 (≈ 8190 mM) | – | – | – | –
N-octanoyl-Gly-Pro [OGP] | – | – | greatly enhanced pro-collagen synthesis | stimulates pro-collagen synthesis/secretion | ≥ 8.3 | higher than those of the control
